Patent publication US6995262B1, “Use of acylsulfonamido-substituted polymethine dyes as fluorescene dyes and/or markers” (Bayer CropScience AG, priority 1999, dated 2006)
Marks after values point to notes of the source that are not given here.

Tests used:
Type in all cases: physicochemical
[1] = Photostability: dye solutions exposed to daylight, reduction of absorption over time; conditions: after 30 min, starting absorption 1.4 to 1.6 O.D.
Protocol: The photostability was determined by exposing dye solutions to daylight. The absorption of the solutions varied between 1.4 and 1.6 O.D. The reduction of the absorption over time is a measure for the photostability of the dyes. These conditions were chosen since the handling of the dyes, too, includes manual process steps during which the dyes are exposed to daylight. In the case of CY5, it is clearly noticeable that, even after 30 min, the absorption has decreased by 12%. This is not the case for the dyes according to the invention, and the latter are thus also more user-friendly, by maintaining a stable absorption.

[2] = Aggregate formation: ratio of absorption maxima of monomer and aggregate at increasing salt concentration; conditions: for characteristics with respect to aggregate formation: with increasing salt concentration
Description: The intensity of the absorption in the absorption maximum of the monomer is a relative measure for the concentration of the monomer in the solution, the same also applies to the concentration of the aggregate, this can be correlated to the intensity of the absorption in the absorption maximum of the aggregate, which is shifted hypsochronically compared to the monomer. […] The increasing salt concentration causes an aggregate formation.

[3] = Extinction coefficient determined assuming Beer's law; conditions: Beer's law assumed
Protocol: Determination of the Extinction Coefficient The extinction coefficient was determined assuming that Beer's law applies.

[4] = Relative quantum yield of dye-protein conjugates, determined relative to Cy5; conditions: protein conjugates at similar molar dye/protein ratios, protein HSA
Protocol: The protein used was HSA (Human Serum Albumin).
Determination of the Quantum Yield
The quantum yield was determined relative to Cy5
For labeling, the crude product (1 aliquot) is dissolved in 1 ml of DMF. 50 μl of this solution are pipetted to 1.5 mL (=1 mg) of anti-HSA solution in carbonate buffer pH 9.2. The reaction solution is stirred at RT under the exclusion of light for 2 hours.
Using gel permeation chromatography over a Sephadex G25 column, the conjugate is then separated from unbound dye. The elution buffer used is PBS, pH 7.4.
Protein conjugates of other dyes, which are listed in Table 1, were prepared in an analogous manner.

| decrease of absorption [1] | Absorption monomer/absorption dimer ([2]; 2.0 M NaCl) | Absorption monomer/absorption dimer ([2]; 3.8 M NaCl) | Absorption monomer/absorption dimer ([2]; Water) | aggregate formation compared to CY5 ([2]; in words, from Table 2) | SMILES | Extinction coefficient [3] | rel. Q.Y. [4] | characteristics with respect to aggregate formation ([2]; in words) |
| --- | --- | --- | --- | --- | --- | --- | --- | --- |
| 12% | 3.18 | 3.19 | 3.12 | – | CCN1/C(=C/C=C/C=C/C2=[N+](CCCCCC(=O)O)c3ccc(S(=O)(=O)O)cc3C2(C)C)C(C)(C)c2cc(S(=O)(=O)[O-])ccc21 [CY5, reference compound] | – | – | – |
| – | 4.35 | 4.40 | 4.40 | considerably lower aggregate formation | CC1(C)C(/C=C2\C(=O)C(/C=C3/N(CCCCCC(=O)O)c4ccc(S(=O)(=O)[O-])cc4C3(C)C)=C2O)=[N+](CC(=O)NS(C)(=O)=O)c2ccc(S(=O)(=O)O)cc21 [J] | 240 000 mol-1*cm^2* | 1.36 | stable characteristics |

| SMILES | decrease of absorption [1] | Absorption monomer/absorption dimer ([2]; 2.0 M NaCl) | Absorption monomer/absorption dimer ([2]; 3.8 M NaCl) | Absorption monomer/absorption dimer ([2]; Water) | aggregate formation compared to CY5 ([2]; in words, from Table 2) | Extinction coefficient [3] | rel. Q.Y. [4] | characteristics with respect to aggregate formation ([2]; in words) |
| --- | --- | --- | --- | --- | --- | --- | --- | --- |
| CC1(C)C(/C=C2\C(=O)C(/C=C3/N(CCCCCC(=O)O)c4ccccc4C3(C)C)=C2O)=[N+](CC(=O)NS(C)(=O)=O)c2ccc(S(=O)(=O)[O-])cc21 [F] | – | 2.81 | 2.81 | 2.89 | – | 420 000 mol-1*cm^2* | 1.35 | stable characteristics |
